Test results published in patent US8217055B2, “Pyrido-pyrazine derivatives useful as herbicidal compounds” (Syngenta Crop Protection LLC, priority 2006, dated 2012).

What was measured:
Assay type in all cases: in vivo
[1] = system: Amaranthus retroflexus; test: Example B1 herbicidal action, post-emergence, seed trays in climatic chamber (score 10=total damage to plant, 0=no damage to plant); conditions: Application post-emergence, 1000 g/ha, evaluated after 9 days
Procedure: (§1) Seeds of a variety of test species were sown in sterilised standard soil in seed trays each having 96 cells. After cultivation for 8 to 9 days cultivation (post-emergence) under controlled conditions in a climatic chamber (cultivation at 23/17° C., day/night; 13 hours light; 50-60% humidity), the plants were treated with an aqueous spray solution of 1000 mg/l of the active ingredient dissolved in 10% DMSO (dimethyl sulfoxide, CAS RN 67-68-5) as a solvent, equivalent to 1000 g/ha. The plants were grown in the climatic chamber after application at (24/19° C., day/night; 13 hours light; 50-60% humidity) and watered twice daily. After 9 days until the test was evaluated (10=total damage to plant, 0=no damage to plant)

[2] = system: Nasturtium officinale; test: as above; conditions: Application post-emergence, 1000 g/ha, evaluated after 9 days
Procedure: as §1

[3] = system: Solanum nigrum; test: as above; conditions: Application post-emergence, 1000 g/ha, evaluated after 9 days
Procedure: as §1

[4] = system: Stellaria media; test: as above; conditions: Application post-emergence, 1000 g/ha, evaluated after 9 days
Procedure: as §1

[5] = system: test plants (a variety of test species); test: Example B2 herbicidal action, post-emergence, pots in glasshouse, evaluated after 13 days (score 10=total damage to plant; 0=no damage to plant); conditions: same protocol as Example B2 (post-emergence, evaluated after 13 days)
Procedure: Seeds of a variety of test species were sown in standard soil in pots. After 8 days cultivation (post-emergence) under controlled conditions in a glasshouse (at 24/16° C., day/night; 14 hours light; 65% humidity), the plants were sprayed with an aqueous spray solution derived from the formulation of the technical active ingredient in acetone/water (50:50) solution containing 0.5% Tween 20 (polyoxyethelyene sorbitan monolaurate, CAS RN 9005-64-5). The test plants were then grown in a glasshouse under controlled conditions in a glasshouse (at 24/16° C., day/night; 14 hours light; 65% humidity) and watered twice daily. After 13 days, the test was evaluated (10=total damage to plant; 0=no damage to plant).

[6] = system: Alopecurus myosuroides; test: Example B3 herbicidal action, post-emergence, small pots in glasshouse (score 10=total damage to plant, 0=no damage to plant); conditions: Application post-emergence, 1000 g/ha, evaluated after 13 days
Procedure: (§2) Seeds of a variety of test species were sown in sterilised compost in small pots. After cultivation for seven days (post-emergence) in controlled conditions in the glasshouse (at 24/16° C., day/night; 14 hours light; 65% humidity) the plants were sprayed with 1 mg of the active ingredient, formulated in 2.5 ml acetone/water (50:50) solution, which is equivalent to 1000 g/ha. Once the foliage was dry, the pots were kept in the glasshouse (at 24/16° C., day/night; 14 hours light; 65% humidity), and were watered twice daily. After 13 days the test was evaluated (10=total damage to plant, 0=no damage to plant).

[7] = system: Amaranthus retroflexus; test: as above; conditions: Application post-emergence, 1000 g/ha, evaluated after 13 days
Procedure: as §2

[8] = system: Chenopodium album; test: as above; conditions: Application post-emergence, 1000 g/ha, evaluated after 13 days
Procedure: as §2

[9] = system: Digitaria sanguinalis; test: as above; conditions: Application post-emergence, 1000 g/ha, evaluated after 13 days
Procedure: as §2

[10] = system: test plants; test: Example B1 herbicidal action, post-emergence, all test plants together; conditions: same protocol as Example B1 (post-emergence, 1000 g/ha, 9 days)
Procedure: as §1

Row | SMILES | AMARE (damage to plant) [1] | NAAOF (damage to plant) [2] | SOLNI (damage to plant) [3] | STEME (damage to plant) [4] | also measured
1 | Cc1ccc(Cl)c(-c2c(OC(=O)C(C)(C)C)c3nccnc3n(CC(F)F)c2=O)c1F [A5] | 4 | 5 | 2 | 7 | 
2 | CC(C)(C)C(=O)Oc1c(-c2cc(C(F)(F)F)ccc2Cl)c(=O)n(CC(F)F)c2nccnc12 [A8] | 6 | 7 | 6 | 7 | 
3 | CC(C)(C)C(=O)Oc1c(-c2c(F)ccc(F)c2Cl)c(=O)n(CC(F)F)c2ncc(-c3ccccc3)nc12 [A31] |  |  |  |  | damage to the test plants [5]: no damage or very little damage
4 | CC(C)C(=O)Oc1c(-c2cccc(C(F)(F)F)c2Cl)c(=O)n(CC(F)F)c2nccnc12 [A4] |  |  |  |  | ALOMY (damage to plant) [6]: 0; AMARE (damage to plant) [7]: 10; CHEAL (damage to plant) [8]: 10; DIGSA (damage to plant) [9]: 7
5 | CC(C)C(=O)Oc1c(-c2cc(C(F)(F)F)ccc2Cl)c(=O)n(CC(F)F)c2nccnc12 [A7] | 4 | 7 | 5 | 8 | 
6 | CC(C)(C)C(=O)Oc1c(-c2ccccc2OC(F)(F)F)c(=O)n(CCC(F)(F)C(F)(F)F)c2nccnc12 [C3] |  |  |  |  | damage to the test plants [10]: no damage or very little damage
7 | CC(C)(C)C(=O)Oc1c(-c2c(F)ccc(F)c2Cl)c(=O)n(CCCCCl)c2nccnc12 [C4] | 0 | 0 | 4 | 1 | 
8 | CC(C)(C)C(=O)Oc1c(-c2c(F)ccc(F)c2Cl)c(=O)n(CCCCl)c2nccnc12 [C5] |  |  |  |  | damage to the test plants [10]: no damage or very little damage
9 | Cc1cnc2c(n1)c(OC(=O)C(C)(C)C)c(-c1c(F)ccc(F)c1Cl)c(=O)n2CC(F)F [A29] |  |  |  |  | damage to the test plants [5]: no damage or very little damage
10 | O=c1c(-c2cccc(C(F)(F)F)c2Cl)c(O)c2nccnc2n1CC(F)F [B1] | 0 | 6 | 6 | 5 | 
11 | Cc1ccc(Cl)c(-c2c(OC(=O)C(C)C)c3nccnc3n(CC(F)F)c2=O)c1F [A6] | 5 | 7 | 0 | 7 | 
12 | CC(C)(C)C(=O)Oc1c(-c2ccccc2OC(F)(F)F)c(=O)n(CCCCCl)c2nccnc12 [C1] |  |  |  |  | damage to the test plants [10]: no damage or very little damage
13 | CC(C)(C)C(=O)Oc1c(-c2ccccc2OC(F)(F)F)c(=O)n(CC(F)F)c2nccnc12 [A1] | 0 | 8 | 6 | 7 | 
14 | CC(C)(C)C(=O)Oc1c(-c2ccccc2OC(F)(F)F)c(=O)n(CCC(F)(F)F)c2nccnc12 [C2] | 0 | 0 | 4 | 0 | 
15 | CC(C)(C)C(=O)Oc1c(-c2c(F)ccc(F)c2Cl)c(=O)n(CCC(F)(F)F)c2nccnc12 [C6] | 0 | 0 | 1 | 3 | 
16 | Cc1cnc2c(OC(=O)C(C)(C)C)c(-c3c(F)ccc(F)c3Cl)c(=O)n(CC(F)F)c2n1 [A30] |  |  |  |  | damage to the test plants [5]: no damage or very little damage
17 | CC(C)(C)C(=O)Oc1c(-c2c(F)ccc(F)c2Cl)c(=O)n(CCC(F)(F)C(F)(F)F)c2nccnc12 [C7] | 0 | 0 | 3 | 0 | 
18 | CC(C)(C)C(=O)Oc1c(-c2ccccc2I)c(=O)n(CC(F)F)c2nccnc12 [A36] |  |  |  |  | ALOMY (damage to plant) [6]: 8; AMARE (damage to plant) [7]: 10; CHEAL (damage to plant) [8]: 10; DIGSA (damage to plant) [9]: 5
19 | CC(C)C(=O)Oc1c(-c2c(F)ccc(F)c2Cl)c(=O)n(CC(F)F)c2nccnc12 [A3] | 6 | 7 | 5 | 9 | 
